2 molecules from patent publication US20150011569A1, “NOVEL P13K p110 INHIBITORS AND METHODS OF USE THEREOF” (PHILADELPHIA HEALTH & EDUCATION CORPORATION d/b/a Drexel …, priority 2011, published 2015) can be followed below.

One assay deals with influenza virus. The experiment in a line: In vitro anti-viral assay in A549 cells (plaque assay, viral mRNA). Format: cell-based.
Assay [1] concerns virulent influenza virus strain. Further details: species or system mice. Conditions: mouse, in vivo.
The next assay has as its target T1, PI3K p110β (Homo sapiens, UniProt P42338).
T1 construct: purchased Reaction Biology Corporation (RBC) Malvern, Pa
The experiment in a line: PI3K isoform inhibition in vitro, p110β. Conditions: class I PI3K isoform β. The class given is biochemical. The text has this:
(§1) A PI3K assay can be used to evaluate the activity of the prototype molecule. Reaction Biology Corporation (RBC) Malvern, Pa. offers Class I PI3Ks (PI3Kα, PI3Kβ, PI3Kγ, and PI3Kδ). The PIP3 product is detected by displacement of biotin-PIP3 from an energy transfer complex consisting of Europium labeled anti-GST monoclonal antibody, a GST-tagged pleckstrin homology (PH) domain, biotinylated PIP3 and Streptavidin-Allophycocyanin (APC). Excitation of Europium in the complex results in an energy transfer to the APC and a fluorescent emission at 665 nm. The PIP3 product formed displaces biotin-PIP3 from the complex resulting in a loss of energy transfer and thus a decrease in signal.

A further assay concerns the target T2, PI3K p110α (Homo sapiens, UniProt P42336).
T2 construct: purchased Reaction Biology Corporation (RBC) Malvern, Pa
Nature of the assay: PI3K isoform inhibition in vitro, p110α. The class given is biochemical. Conditions: class I PI3K isoform α.
Excerpt: as §1

For a further assay, the target named is T3, PI3K p110δ (Homo sapiens, UniProt O00329).
T3 construct: purchased Reaction Biology Corporation (RBC) Malvern, Pa
T3 sequence (O00329 whole entry): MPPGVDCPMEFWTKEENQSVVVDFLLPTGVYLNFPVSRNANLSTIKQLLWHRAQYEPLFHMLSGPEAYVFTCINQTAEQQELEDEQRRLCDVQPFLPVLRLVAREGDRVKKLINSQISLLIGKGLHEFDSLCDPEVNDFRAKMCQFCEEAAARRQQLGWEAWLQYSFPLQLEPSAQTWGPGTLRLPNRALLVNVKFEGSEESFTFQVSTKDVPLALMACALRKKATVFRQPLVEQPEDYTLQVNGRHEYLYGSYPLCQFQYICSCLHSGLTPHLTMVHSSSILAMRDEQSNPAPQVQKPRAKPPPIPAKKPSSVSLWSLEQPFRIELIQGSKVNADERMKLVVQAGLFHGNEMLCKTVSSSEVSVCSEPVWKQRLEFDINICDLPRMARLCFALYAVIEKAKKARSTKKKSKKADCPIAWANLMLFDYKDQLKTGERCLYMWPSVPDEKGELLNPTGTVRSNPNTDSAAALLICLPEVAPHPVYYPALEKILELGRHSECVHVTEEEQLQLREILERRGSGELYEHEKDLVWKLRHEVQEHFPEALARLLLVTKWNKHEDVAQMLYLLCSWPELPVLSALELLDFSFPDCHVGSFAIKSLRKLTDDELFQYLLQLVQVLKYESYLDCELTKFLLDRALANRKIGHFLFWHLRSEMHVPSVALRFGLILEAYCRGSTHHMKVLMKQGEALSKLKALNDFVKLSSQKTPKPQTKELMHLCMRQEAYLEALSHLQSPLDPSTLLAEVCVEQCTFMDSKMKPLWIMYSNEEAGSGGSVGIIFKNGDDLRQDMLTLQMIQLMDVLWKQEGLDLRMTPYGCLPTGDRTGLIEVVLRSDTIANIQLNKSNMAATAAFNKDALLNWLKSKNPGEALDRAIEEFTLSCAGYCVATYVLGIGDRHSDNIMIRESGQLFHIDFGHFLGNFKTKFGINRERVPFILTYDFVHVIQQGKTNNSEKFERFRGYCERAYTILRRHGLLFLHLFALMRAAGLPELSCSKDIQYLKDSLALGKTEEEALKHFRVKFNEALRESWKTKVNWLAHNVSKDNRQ
T3 sequence (P27986 whole entry partner): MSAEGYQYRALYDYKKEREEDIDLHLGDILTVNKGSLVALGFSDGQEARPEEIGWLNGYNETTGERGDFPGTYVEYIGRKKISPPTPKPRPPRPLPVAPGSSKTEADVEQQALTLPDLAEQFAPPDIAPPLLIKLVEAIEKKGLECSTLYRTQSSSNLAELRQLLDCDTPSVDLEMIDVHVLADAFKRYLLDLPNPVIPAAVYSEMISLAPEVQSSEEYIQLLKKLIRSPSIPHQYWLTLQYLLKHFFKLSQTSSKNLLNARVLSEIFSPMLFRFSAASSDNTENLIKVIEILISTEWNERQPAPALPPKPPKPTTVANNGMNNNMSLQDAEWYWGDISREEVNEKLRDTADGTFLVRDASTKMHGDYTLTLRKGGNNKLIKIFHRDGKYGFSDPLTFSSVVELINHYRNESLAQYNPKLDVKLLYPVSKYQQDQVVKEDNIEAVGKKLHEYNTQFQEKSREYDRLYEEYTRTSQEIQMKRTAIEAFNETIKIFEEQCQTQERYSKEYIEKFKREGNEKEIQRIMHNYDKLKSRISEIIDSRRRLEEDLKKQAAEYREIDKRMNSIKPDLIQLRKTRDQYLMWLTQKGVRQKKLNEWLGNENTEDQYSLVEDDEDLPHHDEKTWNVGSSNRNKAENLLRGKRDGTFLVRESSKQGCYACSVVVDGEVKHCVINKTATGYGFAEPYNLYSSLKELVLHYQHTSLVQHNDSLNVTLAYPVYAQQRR
The experiment in a line: PI3K isoform inhibition in vitro, p110δ. The class given is biochemical. The note with it: class I PI3K isoform δ.
Excerpt: as §1

The target in the next assay is T4, PI3K p110γ (Homo sapiens, UniProt P48736).
T4 construct: purchased Reaction Biology Corporation (RBC) Malvern, Pa
T4 sequence (P48736 whole entry): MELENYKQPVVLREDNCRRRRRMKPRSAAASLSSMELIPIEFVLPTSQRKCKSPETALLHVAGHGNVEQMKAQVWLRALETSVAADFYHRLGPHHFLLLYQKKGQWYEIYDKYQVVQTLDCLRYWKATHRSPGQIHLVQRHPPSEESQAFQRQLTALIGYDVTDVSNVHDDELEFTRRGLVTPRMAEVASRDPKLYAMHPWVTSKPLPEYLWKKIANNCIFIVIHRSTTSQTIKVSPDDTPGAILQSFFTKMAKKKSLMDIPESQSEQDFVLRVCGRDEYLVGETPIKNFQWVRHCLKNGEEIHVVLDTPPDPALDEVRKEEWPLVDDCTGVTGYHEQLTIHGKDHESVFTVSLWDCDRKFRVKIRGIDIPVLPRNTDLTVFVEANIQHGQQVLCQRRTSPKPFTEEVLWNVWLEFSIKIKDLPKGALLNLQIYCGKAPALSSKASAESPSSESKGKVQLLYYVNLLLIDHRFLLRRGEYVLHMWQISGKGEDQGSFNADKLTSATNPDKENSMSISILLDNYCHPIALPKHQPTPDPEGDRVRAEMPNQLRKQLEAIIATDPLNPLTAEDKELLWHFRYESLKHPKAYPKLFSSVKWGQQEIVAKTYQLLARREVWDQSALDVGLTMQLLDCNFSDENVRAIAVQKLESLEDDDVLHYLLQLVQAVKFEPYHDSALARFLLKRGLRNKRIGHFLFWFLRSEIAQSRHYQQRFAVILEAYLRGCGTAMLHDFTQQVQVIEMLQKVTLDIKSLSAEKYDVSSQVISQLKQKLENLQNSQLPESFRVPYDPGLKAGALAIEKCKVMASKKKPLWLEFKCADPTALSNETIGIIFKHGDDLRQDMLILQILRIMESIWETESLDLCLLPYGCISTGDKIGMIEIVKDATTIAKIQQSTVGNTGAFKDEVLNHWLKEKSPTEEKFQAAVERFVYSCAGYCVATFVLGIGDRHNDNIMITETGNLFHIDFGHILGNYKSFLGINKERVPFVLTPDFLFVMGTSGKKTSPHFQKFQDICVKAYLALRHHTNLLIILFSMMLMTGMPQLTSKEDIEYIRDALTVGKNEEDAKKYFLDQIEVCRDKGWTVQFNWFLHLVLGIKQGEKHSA
Nature of the assay: PI3K isoform inhibition in vitro, p110γ. Format: biochemical. Conditions: class I PI3K isoform γ.
Excerpt: as §1

Bounds are passed on as bounds.

T2 sequence (P42336 whole entry): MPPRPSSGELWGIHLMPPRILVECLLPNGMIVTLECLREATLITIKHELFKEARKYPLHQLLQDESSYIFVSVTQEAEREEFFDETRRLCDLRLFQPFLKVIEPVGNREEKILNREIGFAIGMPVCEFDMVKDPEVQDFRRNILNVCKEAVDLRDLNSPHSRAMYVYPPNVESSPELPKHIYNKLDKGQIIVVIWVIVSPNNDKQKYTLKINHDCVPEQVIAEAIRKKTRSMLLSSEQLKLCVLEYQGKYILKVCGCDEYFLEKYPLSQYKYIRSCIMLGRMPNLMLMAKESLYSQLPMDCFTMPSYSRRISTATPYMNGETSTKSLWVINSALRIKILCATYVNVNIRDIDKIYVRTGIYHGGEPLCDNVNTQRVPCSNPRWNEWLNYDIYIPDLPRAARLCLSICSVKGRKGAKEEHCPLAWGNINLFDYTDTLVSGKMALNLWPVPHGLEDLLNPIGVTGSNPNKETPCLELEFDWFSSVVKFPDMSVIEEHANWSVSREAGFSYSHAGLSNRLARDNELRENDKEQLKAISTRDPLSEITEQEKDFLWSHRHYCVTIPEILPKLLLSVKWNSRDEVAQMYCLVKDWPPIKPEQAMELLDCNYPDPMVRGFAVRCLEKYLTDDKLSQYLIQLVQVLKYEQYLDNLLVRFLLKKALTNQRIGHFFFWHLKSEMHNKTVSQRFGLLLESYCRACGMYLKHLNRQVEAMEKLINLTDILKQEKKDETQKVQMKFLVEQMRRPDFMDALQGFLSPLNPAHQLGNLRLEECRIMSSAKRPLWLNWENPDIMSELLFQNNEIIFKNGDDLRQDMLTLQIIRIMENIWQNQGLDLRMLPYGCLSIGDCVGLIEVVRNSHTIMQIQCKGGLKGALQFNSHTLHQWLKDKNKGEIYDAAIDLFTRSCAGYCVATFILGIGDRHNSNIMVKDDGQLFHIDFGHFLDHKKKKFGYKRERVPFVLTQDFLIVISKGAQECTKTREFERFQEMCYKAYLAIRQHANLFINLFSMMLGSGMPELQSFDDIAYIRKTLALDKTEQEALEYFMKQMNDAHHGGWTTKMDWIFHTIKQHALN
T2 sequence (P27986 whole entry partner): as the sequence (P27986 whole entry partner) above
T1 sequence (P42338 whole entry): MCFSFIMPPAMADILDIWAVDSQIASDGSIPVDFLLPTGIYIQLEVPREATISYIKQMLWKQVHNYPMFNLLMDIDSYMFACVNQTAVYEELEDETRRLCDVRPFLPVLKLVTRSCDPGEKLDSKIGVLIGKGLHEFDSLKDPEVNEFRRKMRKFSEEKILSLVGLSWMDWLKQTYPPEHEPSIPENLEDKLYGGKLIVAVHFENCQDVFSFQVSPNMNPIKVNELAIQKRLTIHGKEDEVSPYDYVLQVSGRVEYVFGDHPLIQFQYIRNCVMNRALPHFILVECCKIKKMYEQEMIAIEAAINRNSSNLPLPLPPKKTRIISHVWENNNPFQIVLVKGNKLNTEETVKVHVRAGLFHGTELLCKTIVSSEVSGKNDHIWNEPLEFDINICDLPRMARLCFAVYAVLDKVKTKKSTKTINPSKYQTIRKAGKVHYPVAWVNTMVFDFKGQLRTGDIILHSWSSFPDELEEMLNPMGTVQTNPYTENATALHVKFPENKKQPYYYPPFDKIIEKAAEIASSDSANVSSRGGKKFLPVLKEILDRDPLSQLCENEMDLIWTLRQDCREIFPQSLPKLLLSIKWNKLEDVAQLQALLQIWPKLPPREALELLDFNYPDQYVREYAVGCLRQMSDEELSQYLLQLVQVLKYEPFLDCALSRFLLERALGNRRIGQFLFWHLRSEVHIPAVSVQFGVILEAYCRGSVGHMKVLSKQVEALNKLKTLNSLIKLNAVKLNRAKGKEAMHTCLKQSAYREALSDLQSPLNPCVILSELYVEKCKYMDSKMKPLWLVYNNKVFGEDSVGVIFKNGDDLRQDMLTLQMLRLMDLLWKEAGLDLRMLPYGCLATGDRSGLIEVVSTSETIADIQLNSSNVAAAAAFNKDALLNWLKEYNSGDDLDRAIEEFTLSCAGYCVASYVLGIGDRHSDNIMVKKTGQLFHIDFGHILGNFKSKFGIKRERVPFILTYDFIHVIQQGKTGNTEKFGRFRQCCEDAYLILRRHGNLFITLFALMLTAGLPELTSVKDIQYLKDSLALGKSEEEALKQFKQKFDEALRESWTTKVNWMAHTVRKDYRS
T1 sequence (P27986 whole entry partner): as the sequence (P27986 whole entry partner) above

In the case of `Cc1ccccc1-n1c(Cn2cnc3c(N)ncnc32)nc2cccc(C)c2c1=O` [IC87114], the “viral replication in A549 lung epithelial cells” value in the assay with influenza virus was “decreased”. The “protection from lethal challenge” value in assay [1] is listed as “protected animals from lethal challenge”.

As a reminder, the IC50 is the concentration at which inhibition is half-maximal. Consider `Cc1ccccc1-c1nc2ncccc2cc1Cn1cnc2c(N)ncnc21` [compound 7b, 9-((2-(2-methylphenyl)-1,8-naphthyridin-3-yl)methyl)-9H-purin-6-amine], for which the IC50 against PI3K p110β is more than 100 µM; against PI3K p110α it was more than 100 µM; against PI3K p110δ it was 1.3 µM; on PI3K p110γ, 40 µM.
